Assay results reported in ChEMBL document CHEMBL4251601 (Eur J Med Chem, 2018).

Key:
[1] = biological target: Serine/threonine-protein kinase PAK 2 (Homo sapiens) (UniProt Q13177); experiment: Inhibition of recombinant human full length GST-tagged PAK2 expressed in baculovirus expression system at 1 uM by Z'-Lyte assay relative to control
[2] = biological target: Tyrosine-protein kinase receptor UFO (Homo sapiens) (UniProt P30530); experiment: Inhibition of recombinant human N-terminal GST tagged AXL (473-end residues) expressed in baculovirus infected Sf9 cells at 1 uM by Z'-Lyte assay relative to control
[3] = biological target: Casein kinase II subunit alpha (Homo sapiens) (UniProt P68400); experiment: Inhibition of recombinant full length human His-tagged CK2alpha1 expressed in baculovirus expression system at 1 uM by Z'-Lyte assay relative to control
[4] = Volume of distribution at steady state in Sprague-Dawley rat at 2 mg/kg, iv administered as single dose by LC-MS/MS analysis; type: ADME, organism-based; details: in vivo, read-out: Vdss
[5] = Dissociation constant, pKa of the compound at pH 3 to 11 by pH metric method; type: physicochemical
[6] = 1-octanol-phosphate buffer distribution coefficient, log D of the compound at pH 7.4 after 1 hr by LC-MS/MS method; type: physicochemical
[7] = biological target: Tyrosine-protein kinase JAK3 (Homo sapiens) (UniProt P52333); experiment: Inhibition of recombinant human GST-tagged JAK3 expressed in baculovirus expression system at 1 uM by TR-FRET assay relative to control
[8] = biological target: Mitogen-activated protein kinase kinase kinase 14 (Homo sapiens, UniProt Q99558); experiment: Inhibition of recombinant human GST-tagged NIK expressed in baculovirus expression system using ser/thr-7 as substrate preincubated for 15 mins followed by ATP addition measured after 60 mins
[9] = AUC (0 to infinity) in Sprague-Dawley rat at 5 mg/kg, po administered as single dose by LC-MS/MS analysis; type: ADME, organism-based; parameters: dose 5 mg/kg, route oral, time infinity; details: Sprague-Dawley, in vivo
[10] = biological target: cAMP-dependent protein kinase catalytic subunit alpha (Homo sapiens) (UniProt P17612); experiment: Inhibition of recombinant human His-tagged PKA expressed in Escherichia coli at 0.1 uM by Z'-Lyte assay relative to control
U-87 MG [11] = experiment: Cell cycle arrest in human U87MG cells after assessed as accumulation at G1-phase after 24 hrs by propidium iodide staining based flow cytometry; type: functional, U-87MG ATCC
[12] = test system: ALK tyrosine kinase receptor (Homo sapiens), Q9UM73 [C1156Y]; experiment: Inhibition of recombinant N-terminal GST-tagged human ALK cytoplasmic domain (1058 to 1620 residues) C1156Y mutant expressed in baculovirus expression system at 1 uM by TR-FRET assay relative to control
ALK tyrosine kinase receptor (Homo sapiens), Q9UM73 [C1156Y], sequence (Q9UM73 whole entry C1156Y, looked up, the tested form may be a part): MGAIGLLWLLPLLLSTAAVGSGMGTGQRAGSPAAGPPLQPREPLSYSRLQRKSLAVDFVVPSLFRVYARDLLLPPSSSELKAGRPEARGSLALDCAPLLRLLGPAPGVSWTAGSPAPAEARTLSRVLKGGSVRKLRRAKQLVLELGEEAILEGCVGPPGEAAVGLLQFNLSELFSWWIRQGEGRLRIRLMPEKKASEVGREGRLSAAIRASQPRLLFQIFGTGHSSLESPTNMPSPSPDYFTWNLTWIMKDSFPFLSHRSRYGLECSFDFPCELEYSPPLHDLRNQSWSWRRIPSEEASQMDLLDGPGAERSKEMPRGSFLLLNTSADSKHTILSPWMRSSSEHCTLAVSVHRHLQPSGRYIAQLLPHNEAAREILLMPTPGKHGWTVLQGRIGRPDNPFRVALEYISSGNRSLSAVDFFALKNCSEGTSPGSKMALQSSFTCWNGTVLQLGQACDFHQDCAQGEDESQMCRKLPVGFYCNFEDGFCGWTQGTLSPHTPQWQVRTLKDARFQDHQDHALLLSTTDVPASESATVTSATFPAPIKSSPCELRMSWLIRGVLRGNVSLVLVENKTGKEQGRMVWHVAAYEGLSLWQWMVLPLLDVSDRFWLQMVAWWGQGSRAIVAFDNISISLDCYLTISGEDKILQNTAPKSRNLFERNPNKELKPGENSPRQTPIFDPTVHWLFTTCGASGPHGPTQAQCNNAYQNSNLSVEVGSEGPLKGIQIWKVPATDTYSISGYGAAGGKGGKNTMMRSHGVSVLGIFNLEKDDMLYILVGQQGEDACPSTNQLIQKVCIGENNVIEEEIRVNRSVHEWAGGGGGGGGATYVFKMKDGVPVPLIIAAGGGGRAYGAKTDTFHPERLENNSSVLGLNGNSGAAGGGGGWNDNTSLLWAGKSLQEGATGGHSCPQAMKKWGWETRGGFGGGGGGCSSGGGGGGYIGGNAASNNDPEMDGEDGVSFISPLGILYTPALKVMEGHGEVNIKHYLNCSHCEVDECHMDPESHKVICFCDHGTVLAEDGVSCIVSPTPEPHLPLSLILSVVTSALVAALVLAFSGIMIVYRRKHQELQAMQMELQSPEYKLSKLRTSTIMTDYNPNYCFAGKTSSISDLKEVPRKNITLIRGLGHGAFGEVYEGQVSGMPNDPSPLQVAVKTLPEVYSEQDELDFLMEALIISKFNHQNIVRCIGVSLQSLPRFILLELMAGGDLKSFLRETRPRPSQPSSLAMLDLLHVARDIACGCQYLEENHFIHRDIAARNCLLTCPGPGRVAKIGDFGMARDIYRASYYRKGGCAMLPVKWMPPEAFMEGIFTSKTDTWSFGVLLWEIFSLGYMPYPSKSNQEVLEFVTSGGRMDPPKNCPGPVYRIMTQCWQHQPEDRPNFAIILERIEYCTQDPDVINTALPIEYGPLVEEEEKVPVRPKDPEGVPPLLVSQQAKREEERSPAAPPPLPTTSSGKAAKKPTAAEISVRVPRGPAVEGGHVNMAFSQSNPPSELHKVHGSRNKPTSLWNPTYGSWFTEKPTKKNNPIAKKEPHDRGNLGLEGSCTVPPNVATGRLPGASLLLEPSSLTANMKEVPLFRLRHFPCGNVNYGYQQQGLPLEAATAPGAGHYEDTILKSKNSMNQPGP

[13] = Unbound AUC (0 to 24 hrs) in CD-1 mouse plasma at 10 mg/kg, po administered as single dose by LC-MS/MS analysis; type: ADME, organism-based; details: in vivo
[14] = biological target: Leucine-rich repeat serine/threonine-protein kinase 2 (Homo sapiens) (UniProt Q5S007); experiment: Inhibition of recombinant human GST-tagged LRRK2 (970 to 2527 residues) expressed in baculovirus expression system at 1 uM by TR-FRET assay relative to control
[15] = biological target: RAF proto-oncogene serine/threonine-protein kinase (Homo sapiens) (UniProt P04049); experiment: Inhibition of RAF1 (unknown origin) at 1 uM by TR-FRET assay relative to control
RAF proto-oncogene serine/threonine-protein kinase (Homo sapiens), sequence (P04049 whole entry): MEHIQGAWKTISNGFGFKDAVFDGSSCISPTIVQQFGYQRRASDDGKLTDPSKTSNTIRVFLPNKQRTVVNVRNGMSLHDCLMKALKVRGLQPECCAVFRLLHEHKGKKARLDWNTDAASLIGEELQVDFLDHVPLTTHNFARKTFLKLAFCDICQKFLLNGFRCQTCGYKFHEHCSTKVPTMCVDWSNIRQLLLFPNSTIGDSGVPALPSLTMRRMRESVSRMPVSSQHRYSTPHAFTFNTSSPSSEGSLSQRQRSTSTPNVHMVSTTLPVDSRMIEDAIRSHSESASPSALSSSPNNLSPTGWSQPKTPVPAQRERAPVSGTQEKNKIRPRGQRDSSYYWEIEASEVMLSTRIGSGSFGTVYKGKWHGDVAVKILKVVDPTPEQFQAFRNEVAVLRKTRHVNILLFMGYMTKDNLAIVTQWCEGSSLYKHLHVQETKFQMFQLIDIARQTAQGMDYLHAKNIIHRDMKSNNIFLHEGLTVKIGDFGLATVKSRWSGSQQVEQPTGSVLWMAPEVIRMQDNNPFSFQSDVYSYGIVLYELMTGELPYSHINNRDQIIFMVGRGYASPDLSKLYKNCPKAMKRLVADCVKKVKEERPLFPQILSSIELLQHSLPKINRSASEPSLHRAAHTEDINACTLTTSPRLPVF

[16] = biological target: Serine/threonine-protein kinase MARK1 (Homo sapiens) (UniProt Q9P0L2); experiment: Inhibition of recombinant human full length GST-tagged MARK1 expressed in baculovirus expression system at 1 uM by Z'-Lyte assay relative to control
[17] = biological target: Glycogen synthase kinase-3 beta (Homo sapiens) (UniProt P49841); experiment: Inhibition of recombinant human full length His-tagged GSK3beta expressed in baculovirus expression system at 1 uM by Z'-Lyte assay relative to control
[18] = biological target: Dual specificity tyrosine-phosphorylation-regulated kinase 3 (Homo sapiens) (UniProt O43781); experiment: Inhibition of recombinant full length human GST-tagged DYRK3 expressed in baculovirus expression system at 1 uM by Z'-Lyte assay relative to control
[19] = biological target: Serine/threonine-protein kinase MRCK beta (Homo sapiens) (UniProt Q9Y5S2); experiment: Inhibition of recombinant human His-tagged CDC42 BPB expressed in baculovirus expression system at 1 uM by Z'-Lyte assay relative to control
[20] = biological target: Tyrosine-protein kinase Tec (Homo sapiens) (UniProt P42680); experiment: Inhibition of recombinant human full length His-tagged TEC expressed in baculovirus expression system at 0.1 uM by TR-FRET assay relative to control
Tyrosine-protein kinase Tec (Homo sapiens), sequence (P42680 whole entry): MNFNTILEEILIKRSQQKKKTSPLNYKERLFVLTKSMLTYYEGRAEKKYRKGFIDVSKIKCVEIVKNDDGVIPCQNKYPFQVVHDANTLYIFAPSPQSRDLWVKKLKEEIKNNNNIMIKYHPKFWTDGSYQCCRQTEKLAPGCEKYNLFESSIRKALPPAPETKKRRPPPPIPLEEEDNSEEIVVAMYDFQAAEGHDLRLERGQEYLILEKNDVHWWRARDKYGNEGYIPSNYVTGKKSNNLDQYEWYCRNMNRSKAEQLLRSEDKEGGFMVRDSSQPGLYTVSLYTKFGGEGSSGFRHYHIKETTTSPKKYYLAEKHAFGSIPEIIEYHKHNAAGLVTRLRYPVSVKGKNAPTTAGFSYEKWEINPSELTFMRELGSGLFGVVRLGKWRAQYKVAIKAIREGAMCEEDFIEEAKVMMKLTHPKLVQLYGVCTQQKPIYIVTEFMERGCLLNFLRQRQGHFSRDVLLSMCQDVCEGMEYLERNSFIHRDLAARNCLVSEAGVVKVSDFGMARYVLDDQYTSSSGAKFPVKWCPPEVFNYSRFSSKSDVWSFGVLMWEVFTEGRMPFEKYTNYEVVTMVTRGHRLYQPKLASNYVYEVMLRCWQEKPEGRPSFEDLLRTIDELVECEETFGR

[21] = Fraction unbound in CD-1 mouse plasma at 2 uM incubated for 4 hrs by LC/MS/MS analysis based equillibriun dialysis method; type: ADME, cell-free
[22] = biological target: Cytoplasmic tyrosine-protein kinase BMX (Homo sapiens) (UniProt P51813); experiment: Inhibition of recombinant full length human His-tagged BMX expressed in baculovirus expression system at 1 uM by TR-FRET assay relative to control
Cytoplasmic tyrosine-protein kinase BMX (Homo sapiens), sequence (P51813 whole entry, the tested form may be a part): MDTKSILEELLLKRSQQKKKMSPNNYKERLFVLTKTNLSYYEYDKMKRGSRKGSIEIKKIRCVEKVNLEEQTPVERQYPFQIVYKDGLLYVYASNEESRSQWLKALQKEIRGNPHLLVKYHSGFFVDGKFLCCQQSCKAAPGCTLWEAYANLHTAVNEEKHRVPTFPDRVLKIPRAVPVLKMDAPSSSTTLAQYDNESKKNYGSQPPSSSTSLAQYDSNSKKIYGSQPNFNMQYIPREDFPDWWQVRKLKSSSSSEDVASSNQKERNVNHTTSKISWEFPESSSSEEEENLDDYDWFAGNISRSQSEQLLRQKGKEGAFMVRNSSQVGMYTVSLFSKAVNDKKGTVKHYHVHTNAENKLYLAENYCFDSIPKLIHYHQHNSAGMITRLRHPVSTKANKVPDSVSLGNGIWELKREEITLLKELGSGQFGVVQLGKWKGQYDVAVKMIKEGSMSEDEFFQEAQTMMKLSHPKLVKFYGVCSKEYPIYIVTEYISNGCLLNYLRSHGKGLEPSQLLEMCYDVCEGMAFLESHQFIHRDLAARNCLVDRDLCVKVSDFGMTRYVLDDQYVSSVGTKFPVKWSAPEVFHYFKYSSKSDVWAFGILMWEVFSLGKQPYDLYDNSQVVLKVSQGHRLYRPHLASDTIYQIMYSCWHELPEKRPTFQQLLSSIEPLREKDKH

[23] = biological target: Tyrosine-protein kinase JAK3 (Homo sapiens, UniProt P52333); experiment: Inhibition of recombinant human GST-tagged JAK3 cytoplasmic domain (781 to 1124 residues) expressed in baculovirus expression system using ULight-JAK-1 peptide as substrate preincubated for 15 mins followed by ATP addition measured after 90 mins
[24] = biological target: Tyrosine-protein kinase Srms (Homo sapiens) (UniProt Q9H3Y6); experiment: Inhibition of recombinant human full length GST-tagged SRMS expressed in baculovirus expression system at 1 uM by TR-FRET assay relative to control
Tyrosine-protein kinase Srms (Homo sapiens), sequence (Q9H3Y6 whole entry): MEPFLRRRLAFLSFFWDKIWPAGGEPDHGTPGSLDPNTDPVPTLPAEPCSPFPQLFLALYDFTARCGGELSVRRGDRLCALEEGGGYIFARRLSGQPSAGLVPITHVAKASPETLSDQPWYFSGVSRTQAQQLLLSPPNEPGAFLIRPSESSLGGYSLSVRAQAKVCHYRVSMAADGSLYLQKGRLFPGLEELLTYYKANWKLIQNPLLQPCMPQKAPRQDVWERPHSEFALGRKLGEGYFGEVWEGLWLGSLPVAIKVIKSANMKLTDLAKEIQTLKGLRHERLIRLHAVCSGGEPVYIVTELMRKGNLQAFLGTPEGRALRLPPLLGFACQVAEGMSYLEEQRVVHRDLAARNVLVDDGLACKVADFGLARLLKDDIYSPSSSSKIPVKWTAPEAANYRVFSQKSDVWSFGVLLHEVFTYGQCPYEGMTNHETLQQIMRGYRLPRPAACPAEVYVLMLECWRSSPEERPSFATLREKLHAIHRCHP

[25] = Unbound Cmax in CD-1 mouse brain at 10 mg/kg, po administered as single dose by LC-MS/MS analysis; type: ADME, organism-based; details: in vivo
[26] = biological target: Aurora kinase B (Homo sapiens) (UniProt Q96GD4); experiment: Inhibition of recombinant full length human His-tagged AURKB expressed in baculovirus expression system at 1 uM by Z'-Lyte assay relative to control
U-87 MG [27] = experiment: Antitumor activity against luciferase-fused human U87MG cells orthotopically xenografted in nude mouse assessed as tumor growth inhibition at 6.25 mg/kg, po qd for 4 weeks by bioluminescence imaging relative to control; type: functional, U-87MG ATCC; details: 672 h, read-out: TGI
[28] = biological target: Fibroblast growth factor receptor 1 (Homo sapiens) (UniProt P11362); experiment: Inhibition of recombinant human His-tagged FGFR1 cytoplasmic domain expressed in baculovirus expression system at 0.1 uM by Z'-Lyte assay relative to control
Fibroblast growth factor receptor 1 (Homo sapiens), sequence (P11362 22-822 limits assumed): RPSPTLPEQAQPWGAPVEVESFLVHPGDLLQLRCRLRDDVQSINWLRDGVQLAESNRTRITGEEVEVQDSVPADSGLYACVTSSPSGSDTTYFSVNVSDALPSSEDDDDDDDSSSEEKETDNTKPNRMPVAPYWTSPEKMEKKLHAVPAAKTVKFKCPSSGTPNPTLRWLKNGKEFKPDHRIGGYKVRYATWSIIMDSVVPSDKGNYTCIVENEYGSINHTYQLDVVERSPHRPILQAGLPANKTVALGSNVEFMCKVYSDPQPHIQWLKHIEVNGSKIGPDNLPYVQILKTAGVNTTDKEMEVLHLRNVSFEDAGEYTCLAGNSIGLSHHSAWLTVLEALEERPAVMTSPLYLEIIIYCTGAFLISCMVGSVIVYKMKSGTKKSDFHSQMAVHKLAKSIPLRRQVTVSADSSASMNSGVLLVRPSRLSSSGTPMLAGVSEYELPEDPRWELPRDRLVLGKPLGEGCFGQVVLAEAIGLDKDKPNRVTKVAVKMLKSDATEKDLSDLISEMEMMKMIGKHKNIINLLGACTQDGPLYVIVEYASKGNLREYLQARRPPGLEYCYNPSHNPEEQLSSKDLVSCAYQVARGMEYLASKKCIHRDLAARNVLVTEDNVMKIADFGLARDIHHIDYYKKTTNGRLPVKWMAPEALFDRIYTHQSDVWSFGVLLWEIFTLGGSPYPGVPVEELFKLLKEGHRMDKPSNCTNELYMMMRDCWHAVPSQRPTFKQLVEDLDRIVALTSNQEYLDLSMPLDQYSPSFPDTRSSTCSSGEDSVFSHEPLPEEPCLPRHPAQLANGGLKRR

[29] = biological target: Tyrosine-protein kinase Lyn (Homo sapiens) (UniProt P07948); experiment: Inhibition of recombinant human full length GST-tagged Lyn-A expressed in insect cells at 0.1 uM by Z'-Lyte assay relative to control
[30] = biological target: Angiopoietin-1 receptor (Homo sapiens) (UniProt Q02763); experiment: Inhibition of recombinant human GST-tagged TIE2 cytoplasmic domain expressed in baculovirus expression system at 1 uM by Z'-Lyte assay relative to control
[31] = biological target: Ephrin type-B receptor 2 (Homo sapiens) (UniProt P29323); experiment: Inhibition of recombinant human GST-tagged EPHB2 cytoplasmic domain (616 to 884 residues) expressed in baculovirus expression system at 0.1 uM by Z'-Lyte assay relative to control

CC1=Nc2c(F)cc(-c3nc(Nc4ccc(C5CCN(C)CC5)cn4)ncc3F)cc2C12CCCC2 [CROZBACICLIB]
inhibition [1]: 10%
inhibition [2]: 26%
inhibition [3]: 23%
Vd [4]: 17.4 L/kg
pKa [5]: 8.19
logD at 1 h [6]: 3.49
inhibition [7]: 92%
IC50 [8]: 45 nM
AUC(0-inf) [9]: 1580 ng·h/mL
inhibition [10]: 0%
Emax (U-87 MG [11]): 41.1%
Activity (U-87 MG [11]; U-87MG ATCC): Dose-dependent effect
inhibition [12]: 28%
fAUC [13]: 63.45 ng·h/mL
inhibition [14]: 34%
inhibition [15]: 0%
inhibition [16]: 16%
inhibition [17]: 81%
inhibition [18]: 96%
inhibition [19]: 68%
inhibition [20]: 11%
Fu [21]: 0.7%
inhibition [22]: 19%
IC50 [23]: 154 nM
inhibition [24]: 6%
fCmax [25]: 1.03 ng/g
inhibition [26]: 6%
inhibition in vivo at 6.25 mg/kg (U-87 MG [27]): 79%
inhibition [28]: -8%
inhibition [29]: 0%
inhibition [30]: -2%
inhibition [31]: -8%
